Results taken from US9302999B2, “Substituted triazoles as herbicides” (E. I. DU PONT DE NEMOURS AND COMPANY, priority 2012, dated 2016).

What was measured:
Format in all cases: in vivo
[1] = system: ducksalad (Heteranthera limosa); experiment: Test B flooded paddy: ducksalad; conditions: Flood; 250 g ai/ha; applied to paddy water at 2-leaf stage; visually evaluated after 13 to 15 days
In short: (§1)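 Plants were grown to the 2-leaf stage and pots flooded to 3 cm above soil. Compounds were applied directly into the paddy water, with depth kept for the test. After 13–15 days in greenhouse, response was rated visually against controls on a 0 (no effect) to 100 (complete control) scale.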

corn (Zea mays) = experiment: Test C pre-/postemergence: corn
In short: (§2)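 Preemergence on seeds in loam/sand, postemergence on 2–18 cm (1–4-leaf) plants in peat-based medium; compounds in non-phytotoxic solvent with surfactant. After 13–15 days in greenhouse, visual rating versus controls, 0 (no effect) to 100 (complete control).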

[2] = system: sedge, umbrella (small-flower umbrella sedge Cyperus difformis); experiment: Test B flooded paddy: sedge, umbrella; conditions: Flood; 250 g ai/ha; applied to paddy water at 2-leaf stage; visually evaluated after 13 to 15 days
In short: as §1

[3] = system: chickweed (common chickweed, Stellaria media); experiment: Test C postemergence: chickweed
In short: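 Crop and weed plants were grown in peat-vermiculite medium and treated postemergence at the 1- to 4-leaf stage (2-18 cm tall). After 13-15 days in a greenhouse, each species was rated visually against untreated controls on a 0-100 scale (0 no effect, 100 complete control).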

[4] = system: winter wheat (Triticum aestivum); experiment: Test C pre-/postemergence: winter wheat
In short: as §2

[5] = system: morningglory (Ipomoea coccinea); experiment: Test C pre-/postemergence: morningglory
In short: as §2

[6] = system: large crabgrass (Digitaria sanguinalis); experiment: Test C pre-/postemergence: large crabgrass
In short: as §2

[7] = system: barnyardgrass (Echinochloa crus-galli); experiment: Test B flooded paddy: barnyardgrass; conditions: Flood; 250 g ai/ha; applied to paddy water at 2-leaf stage; visually evaluated after 13 to 15 days
In short: as §1

[8] = system: ryegrass, Italian (Italian ryegrass, Lolium multiflorum); experiment: Test C pre-/postemergence: ryegrass, Italian
In short: as §2

[9] = system: velvetleaf (Abutilon theophrasti); experiment: Test A pre-/postemergence: velvetleaf
In short: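 Each species received preemergence soil-directed spraying and, at the same time, postemergence treatment of seedlings 2–10 cm tall. Formulation: non-phytotoxic solvent mixture including surfactant. Response assessed visually about ten days on, relative to untreated controls, 0–100 scale.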

[10] = system: blackgrass (Alopecurus myosuroides); experiment: Test C pre-/postemergence: blackgrass
In short: as §2

[11] = Postemergence, 31 g ai/ha, scale 0 to 100 (0 no effect, 100 complete control)
[12] = Postemergence, 62 g ai/ha, scale 0 to 100 (0 no effect, 100 complete control)
[13] = Postemergence, 125 g ai/ha, scale 0 to 100, 0 no effect, 100 complete control
[14] = Postemergence, 250 g ai/ha, scale 0 to 100
[15] = 31 g ai/ha, scale 0 to 100 (0 no effect, 100 complete control)
[16] = 62 g ai/ha, scale 0 to 100 (0 no effect, 100 complete control)
[17] = 125 g ai/ha, scale 0 to 100, 0 no effect, 100 complete control
[18] = Postemergence, 125 g ai/ha, 0 to 100 scale, 0 is no effect, 100 is complete control
[19] = Preemergence, 125 g ai/ha, 0 to 100 scale where 0 is no effect and 100 is complete control
[20] = Preemergence, 500 g ai/ha, 0 to 100 scale (0 no effect, 100 complete control)
[21] = Preemergence, 31 g ai/ha, scale of 0 to 100, 0 is no effect, 100 is complete control
[22] = Preemergence, 62 g ai/ha, scale of 0 to 100, 0 is no effect, 100 is complete control
[23] = Preemergence, 125 g ai/ha, scale 0 to 100, 0 no effect, 100 complete control
[24] = Preemergence, 250 g ai/ha, scale 0 to 100, 0 no effect, 100 complete control

## Cc1nn(-c2ccnc(Cl)c2)nc1Cc1ccnc(C(F)(F)F)c1 [Compound 141]
[1]
  Plant response rating, Ducksalad (0 to 100 scale, 0 is no effect, 100 is complete control): 85
Corn (Zea mays); [11]
  Plant response rating, Corn: 45
Corn (Zea mays); [12]
  Plant response rating, Corn: 45
Corn (Zea mays); [13]
  Plant response rating, Corn: 55
Corn (Zea mays); [14]
  Plant response rating, Corn: 60
[2]
  Plant response rating, Sedge, Umbrella (0 to 100 scale, 0 is no effect, 100 is complete control): 85
[3]; [15]
  Plant response rating, Chickweed: 80
[3]; [16]
  Plant response rating, Chickweed: 90
[3]; [17]
  Plant response rating, Chickweed: 98
[3]; 250 g ai/ha, scale 0 to 100
  Plant response rating, Chickweed: 100
[4]; [11]
  Plant response rating, Wheat: 10
[4]; [12]
  Plant response rating, Wheat: 15
[4]; [13]
  Plant response rating, Wheat: 20
[4]; [14]
  Plant response rating, Wheat: 20
[5]; [11]
  Plant response rating, Morningglory: 85
[5]; [12]
  Plant response rating, Morningglory: 85
[5]; [13]
  Plant response rating, Morningglory: 95
[6]; [11]
  Plant response rating, Crabgrass, Large: 20
[6]; [12]
  Plant response rating, Crabgrass, Large: 55
[6]; [13]
  Plant response rating, Crabgrass, Large: 80
[6]; [14]
  Plant response rating, Crabgrass, Large: 95
[7]
  Plant response rating, Barnyardgrass (0 to 100 scale, 0 is no effect, 100 is complete control): 20
[8]; [11]
  Plant response rating, Ryegrass, Italian: 15
[8]; [12]
  Plant response rating, Ryegrass, Italian: 30
[8]; [13]
  Plant response rating, Ryegrass, Italian: 50
[8]; [14]
  Plant response rating, Ryegrass, Italian: 70
[9]; [18]
  Plant response rating, Velvetleaf: 70
[9]; Postemergence, 500 g ai/ha, visual rating on 0 to 100 scale (0 no effect, 100 complete control), approximately ten days
  Velvetleaf plant response rating: 90
[9]; [19]
  Plant response rating, Velvetleaf: 20
[9]; [20]
  Plant response rating, Velvetleaf: 60
[10]; [11]
  Plant response rating, Blackgrass: 20
[10]; [12]
  Plant response rating, Blackgrass: 20
[10]; [13]
  Plant response rating, Blackgrass: 35
[10]; [14]
  Plant response rating, Blackgrass: 75

## Cc1nn(-c2ccc(C(F)(F)F)c(F)c2)nc1Oc1ccnc(C(F)(F)F)c1 [Compound 148]
[1]
  Plant response rating, Ducksalad (0 to 100 scale, 0 is no effect, 100 is complete control): 85
Corn (Zea mays); [11]
  Plant response rating, Corn: 25
Corn (Zea mays); [12]
  Plant response rating, Corn: 30
Corn (Zea mays); [13]
  Plant response rating, Corn: 55
Corn (Zea mays); [14]
  Plant response rating, Corn: 60
Corn (Zea mays); [21]
  Plant response rating, Corn: 5
Corn (Zea mays); [22]
  Plant response rating, Corn: 10
Corn (Zea mays); [23]
  Plant response rating, Corn: 15
Corn (Zea mays); [24]
  Plant response rating, Corn: 45
[2]
  Plant response rating, Sedge, Umbrella (0 to 100 scale, 0 is no effect, 100 is complete control): 85
[3]; [15]
  Plant response rating, Chickweed: 75
[3]; [16]
  Plant response rating, Chickweed: 75
[3]; [17]
  Plant response rating, Chickweed: 90
[3]; 250 g ai/ha, scale 0 to 100
  Plant response rating, Chickweed: 98
[4]; [11]
  Plant response rating, Wheat: 20
[4]; [12]
  Plant response rating, Wheat: 25
[4]; [13]
  Plant response rating, Wheat: 40
[4]; [14]
  Plant response rating, Wheat: 40
[4]; [22]
  Plant response rating, Wheat: 5
[4]; [23]
  Plant response rating, Wheat: 30
[4]; [24]
  Plant response rating, Wheat: 35
[5]; [11]
  Plant response rating, Morningglory: 70
[5]; [12]
  Plant response rating, Morningglory: 98
[5]; [13]
  Plant response rating, Morningglory: 98
[5]; [14]
  Plant response rating, Morningglory: 98
[5]; [21]
  Plant response rating, Morningglory: 20
[5]; [22]
  Plant response rating, Morningglory: 20
[5]; [23]
  Plant response rating, Morningglory: 55
[5]; [24]
  Plant response rating, Morningglory: 75
[6]; [11]
  Plant response rating, Crabgrass, Large: 15
[6]; [12]
  Plant response rating, Crabgrass, Large: 60
[6]; [13]
  Plant response rating, Crabgrass, Large: 60
[6]; [14]
  Plant response rating, Crabgrass, Large: 80
[6]; [21]
  Plant response rating, Crabgrass, Large: 100
[6]; [22]
  Plant response rating, Crabgrass, Large: 100
[6]; [23]
  Plant response rating, Crabgrass, Large: 100
[6]; [24]
  Plant response rating, Crabgrass, Large: 100
[7]
  Plant response rating, Barnyardgrass (0 to 100 scale, 0 is no effect, 100 is complete control): 65
[8]; [11]
  Plant response rating, Ryegrass, Italian: 10
[8]; [12]
  Plant response rating, Ryegrass, Italian: 35
[8]; [13]
  Plant response rating, Ryegrass, Italian: 60
[8]; [14]
  Plant response rating, Ryegrass, Italian: 65
[8]; [21]
  Plant response rating, Ryegrass, Italian: 5
[8]; [22]
  Plant response rating, Ryegrass, Italian: 60
[8]; [23]
  Plant response rating, Ryegrass, Italian: 60
[8]; [24]
  Plant response rating, Ryegrass, Italian: 90
[9]; [18]
  Plant response rating, Velvetleaf: 100
[9]; [19]
  Plant response rating, Velvetleaf: 20
[9]; [20]
  Plant response rating, Velvetleaf: 70
[10]; [11]
  Plant response rating, Blackgrass: 40
[10]; [12]
  Plant response rating, Blackgrass: 50
[10]; [13]
  Plant response rating, Blackgrass: 70
[10]; [14]
  Plant response rating, Blackgrass: 80
[10]; [21]
  Plant response rating, Blackgrass: 60
[10]; [22]
  Plant response rating, Blackgrass: 85
[10]; [23]
  Plant response rating, Blackgrass: 90
[10]; [24]
  Plant response rating, Blackgrass: 90
